Columns and labels:
[1] = biological target: T1, MKK4 (Homo sapiens, UniProt P45985); assay: KINOMEscan competition binding assay, MKK4; conditions: residual percent of control binding (PoC) at 100 nM
T1 construct: S84/D399; host or cells: HEK-293
T1 sequence (P45985 84-399): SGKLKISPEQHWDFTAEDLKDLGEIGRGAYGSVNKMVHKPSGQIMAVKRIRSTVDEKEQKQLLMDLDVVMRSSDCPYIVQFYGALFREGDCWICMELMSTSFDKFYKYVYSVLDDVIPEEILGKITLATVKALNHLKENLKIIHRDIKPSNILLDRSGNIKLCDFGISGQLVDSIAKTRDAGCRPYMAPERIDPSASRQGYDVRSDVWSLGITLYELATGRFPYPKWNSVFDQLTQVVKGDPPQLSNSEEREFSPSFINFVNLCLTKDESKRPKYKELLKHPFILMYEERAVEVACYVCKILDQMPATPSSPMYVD
Procedure, shortened: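 KINOMEscan competition of compound versus immobilized ligand for DNA-tagged MKK4 expressed in HEK-293 cells. Bound kinase was quantified by qPCR after elution.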

[2] = biological target: T2, BRaf (Homo sapiens, UniProt P15056); assay: KINOMEscan competition binding assay, BRaf; conditions: ratio PoC (off-target)/PoC (MKK4)
T2 construct: purchased ProQinase GmbH, Freiburg, Germany (33PanQinase Assay Service)
Procedure, shortened: (§1)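 DNA-tagged kinases expressed in HEK-293 cells compete between immobilized ligand on blocked beads and test compound at 100 nM; kinase retained on beads quantified by qPCR of the tag.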

[3] = biological target: T3, MKK4 (Homo sapiens, UniProt P45985); assay: 33PanQinase enzyme assay, MKK4; type: biochemical; conditions: assay 'IC50'; read-out: Potency MKK4 (IC50)
T3 construct: purchased ProQinase GmbH, Freiburg, Germany (33PanQinase Assay Service)
T3 sequence (P45985 1-399): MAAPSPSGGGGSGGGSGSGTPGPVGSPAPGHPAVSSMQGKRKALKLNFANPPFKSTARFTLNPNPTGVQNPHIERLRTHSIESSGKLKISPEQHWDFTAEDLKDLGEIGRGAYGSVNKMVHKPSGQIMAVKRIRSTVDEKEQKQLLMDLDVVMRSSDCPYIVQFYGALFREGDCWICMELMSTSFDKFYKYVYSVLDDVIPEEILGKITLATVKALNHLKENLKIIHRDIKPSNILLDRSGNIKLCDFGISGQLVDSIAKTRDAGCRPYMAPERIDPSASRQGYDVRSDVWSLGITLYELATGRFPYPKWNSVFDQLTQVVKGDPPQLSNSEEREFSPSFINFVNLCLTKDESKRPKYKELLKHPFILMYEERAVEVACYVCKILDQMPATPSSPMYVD
Procedure, shortened: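 Radiometric 33PanQinase assay: kinase, substrate, ATP and compound in standard buffer, 60 min at 30 °C; 33Pi incorporation read by scintillation counting.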

[4] = biological target: T2, BRaf; assay: 33PanQinase enzyme assay, BRaf; type: biochemical; conditions: ratio IC50(BRaf)/IC50(MKK4)
Procedure, shortened: (§2)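 Radiometric kinase reactions with ATP, test compound in DMSO and enzyme/substrate mix were incubated 60 min at 30 °C, stopped with 2% H3PO4 and washed; incorporated 33Pi was counted by scintillation. Single-concentration data are given as % residual activity; IC50 values come from least-squares curve fits.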

[5] = biological target: T4, MKK7 (Homo sapiens, UniProt O14733); assay: KINOMEscan competition binding assay, MKK7; design: M1/R419; host or cells: HEK-293; conditions: ratio PoC (off-target)/PoC (MKK4)
T4 sequence (O14733 1-419): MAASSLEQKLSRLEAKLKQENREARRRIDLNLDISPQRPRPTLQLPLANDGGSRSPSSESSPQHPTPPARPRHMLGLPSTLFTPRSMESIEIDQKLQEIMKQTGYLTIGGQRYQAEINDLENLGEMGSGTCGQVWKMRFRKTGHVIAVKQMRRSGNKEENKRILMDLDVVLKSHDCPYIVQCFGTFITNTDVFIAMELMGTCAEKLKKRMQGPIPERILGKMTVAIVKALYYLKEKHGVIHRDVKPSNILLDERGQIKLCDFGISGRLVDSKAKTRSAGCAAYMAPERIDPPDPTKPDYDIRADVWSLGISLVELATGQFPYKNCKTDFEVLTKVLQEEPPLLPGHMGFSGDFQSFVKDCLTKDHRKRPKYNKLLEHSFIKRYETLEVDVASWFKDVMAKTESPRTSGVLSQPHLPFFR
Procedure, shortened: as §1

[6] = biological target: T5, JNK1 (Homo sapiens, UniProt P45983); assay: KINOMEscan competition binding assay, JNK1; design: M1/Q384; host or cells: HEK-293; conditions: ratio PoC (off-target)/PoC (MKK4)
Procedure, shortened: as §1
Target sequence in this assay (P45983 1-384 isoform P45983-2): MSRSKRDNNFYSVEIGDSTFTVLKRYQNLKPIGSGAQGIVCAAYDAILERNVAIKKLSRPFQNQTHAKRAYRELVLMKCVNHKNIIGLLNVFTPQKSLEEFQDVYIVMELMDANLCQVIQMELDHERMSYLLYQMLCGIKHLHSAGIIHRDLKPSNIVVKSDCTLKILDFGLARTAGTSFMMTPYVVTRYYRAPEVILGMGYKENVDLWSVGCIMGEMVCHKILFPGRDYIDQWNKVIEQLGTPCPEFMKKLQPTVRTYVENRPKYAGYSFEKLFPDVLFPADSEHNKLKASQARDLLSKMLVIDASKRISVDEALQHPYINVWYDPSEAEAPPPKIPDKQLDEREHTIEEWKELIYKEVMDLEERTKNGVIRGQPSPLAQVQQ

[7] = biological target: T5, JNK1; assay: 33PanQinase enzyme assay, JNK1; type: biochemical; design: purchased ProQinase GmbH, Freiburg, Germany (33PanQinase Assay Service); conditions: ratio IC50(JNK1)/IC50(MKK4)
Procedure, shortened: as §2
Target sequence in this assay (P45983 whole entry): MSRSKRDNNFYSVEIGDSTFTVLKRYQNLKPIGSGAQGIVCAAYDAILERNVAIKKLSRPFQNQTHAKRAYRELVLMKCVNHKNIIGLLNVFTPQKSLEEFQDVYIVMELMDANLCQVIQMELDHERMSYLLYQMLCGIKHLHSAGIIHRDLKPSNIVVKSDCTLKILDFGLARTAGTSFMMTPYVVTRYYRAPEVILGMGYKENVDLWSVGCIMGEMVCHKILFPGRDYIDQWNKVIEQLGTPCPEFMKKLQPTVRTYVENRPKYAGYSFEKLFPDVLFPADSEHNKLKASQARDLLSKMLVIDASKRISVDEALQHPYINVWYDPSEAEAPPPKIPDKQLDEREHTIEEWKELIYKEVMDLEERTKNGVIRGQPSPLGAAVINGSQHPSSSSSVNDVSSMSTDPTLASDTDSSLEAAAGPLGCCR

[8] = biological target: T4, MKK7; assay: 33PanQinase enzyme assay, MKK7; type: biochemical; design: purchased ProQinase GmbH, Freiburg, Germany (33PanQinase Assay Service); conditions: ratio IC50(MKK7)/IC50(MKK4)
Procedure, shortened: as §2

T2 sequence (P15056 whole entry, species assumed): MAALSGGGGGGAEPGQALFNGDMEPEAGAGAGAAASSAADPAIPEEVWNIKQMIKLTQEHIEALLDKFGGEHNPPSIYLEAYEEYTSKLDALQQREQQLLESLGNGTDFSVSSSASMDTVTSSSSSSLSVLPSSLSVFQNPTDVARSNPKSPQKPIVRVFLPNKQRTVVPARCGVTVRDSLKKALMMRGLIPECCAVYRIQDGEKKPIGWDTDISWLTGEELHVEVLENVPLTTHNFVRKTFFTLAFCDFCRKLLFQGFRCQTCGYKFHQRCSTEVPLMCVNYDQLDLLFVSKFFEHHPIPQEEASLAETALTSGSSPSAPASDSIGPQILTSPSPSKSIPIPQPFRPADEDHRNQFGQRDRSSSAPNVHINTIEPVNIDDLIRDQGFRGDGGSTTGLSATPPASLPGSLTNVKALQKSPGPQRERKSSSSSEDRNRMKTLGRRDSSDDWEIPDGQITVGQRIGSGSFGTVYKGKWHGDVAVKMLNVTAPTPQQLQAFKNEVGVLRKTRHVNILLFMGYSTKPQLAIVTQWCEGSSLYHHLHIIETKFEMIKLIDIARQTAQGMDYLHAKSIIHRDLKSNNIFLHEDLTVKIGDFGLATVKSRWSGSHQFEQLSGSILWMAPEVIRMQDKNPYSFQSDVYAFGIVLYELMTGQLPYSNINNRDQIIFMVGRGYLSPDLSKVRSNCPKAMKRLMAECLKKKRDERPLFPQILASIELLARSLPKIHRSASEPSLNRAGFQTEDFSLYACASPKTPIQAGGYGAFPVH

| SMILES | MKK4 [% Ctrl @ 100 nM [1] | selectivity based on % Ctrl @100 nM vs. Braf [2] | IC50 [3] [nM] | Selectivity Braf, IC50(off-target)/IC50(MKK4) [4] | selectivity based on % Ctrl @100 nM vs. MKK7 [5] | selectivity based on % Ctrl @100 nM vs. JNK1 [6] | Selectivity JNK1, IC50(off-target)/IC50(MKK4) [7] | Selectivity IVIKK7, IC50(off-target)/IC50(MKK4) [8] |
| --- | --- | --- | --- | --- | --- | --- | --- | --- |
| O=C(c1cccc(NS(=O)(=O)Cc2ccccc2)c1F)c1c[nH]c2ncc(-c3cc4c(cc3Cl)OCO4)cc12 [Example 128, N-(3-(5-(6-chlorobenzo[d][1,3]dioxol-5-yl)-1H-pyrrolo[2,3-b]pyridine-3-carbonyl)-2-fluorophenyl)-1-phenylmethanesulfonamide] | ++ (1 ≤ PoC < 3) | ++ (100 ≥ ratio > 10) | 100 to 1000 | +++ (IC50(off-target)/IC50(MKK4) > 100) | ++ (100 ≥ ratio > 10) | ++ (100 ≥ ratio > 10) | + (10 ≥ IC50(off-target)/IC50(MKK4) > 3) | +++ (IC50(off-target)/IC50(MKK4) > 100) |
| CCCS(=O)(=O)Nc1c(F)ccc(C(=O)c2c[nH]c3ncc(-c4ccc(N5CCC5)nc4)cc23)c1F [Example 162, N-(3-(5-(6-(azetidin-1-yl)pyridin-3-yl)-1H-pyrrolo[2,3-b]pyridine-3-carbonyl)-2,6-difluorophenyl)propane-1-sulfonamide] | +++ (PoC < 1) | +++ (Ratio > 100) | 100 to 1000 | ++ (100 ≥ IC50(off-target)/IC50(MKK4) > 10) | +++ (Ratio > 100) | +++ (Ratio > 100) | ++ (100 ≥ IC50(off-target)/IC50(MKK4) > 10) | +++ (IC50(off-target)/IC50(MKK4) > 100) |
| COc1ccc(-c2cnc3[nH]cc(C(=O)c4ccc(F)c(NS(=O)(=O)CCC(F)(F)F)c4F)c3c2)cn1 [Example 158, N-(2,6-difluoro-3-(5-(6-methoxypyridin-3-yl)-1H-pyrrolo[2,3-b]pyridine-3-carbonyl)phenyl)-3,3,3-trifluoropropane-1-sulfonamide] | +++ (PoC < 1) | +++ (Ratio > 100) | < 100 | ++ (100 ≥ IC50(off-target)/IC50(MKK4) > 10) | +++ (Ratio > 100) | +++ (Ratio > 100) | +++ (IC50(off-target)/IC50(MKK4) > 100) | +++ (IC50(off-target)/IC50(MKK4) > 100) |
| CCCS(=O)(=O)Nc1ccc(F)c(C(=O)c2c[nH]c3ncc(-c4ccc(OC)c(OC)c4)cc23)c1F [Example 105, N-(3-(5-(3,4-dimethoxyphenyl)-1H-pyrrolo[2,3-b]pyridine-3-carbonyl)-2,4-difluorophenyl)propane-1-sulfonamide] | ++ (1 ≤ PoC < 3) | ◯ (3 ≥ Ratio) | 100 to 1000 | ◯ (3 ≥ IC50(off-target)/IC50(MKK4)) | ++ (100 ≥ ratio > 10) | ++ (100 ≥ ratio > 10) | ++ (100 ≥ IC50(off-target)/IC50(MKK4) > 10) | +++ (IC50(off-target)/IC50(MKK4) > 100) |
| CCCS(=O)(=O)Nc1ccc(F)c(C(=O)c2c[nH]c3ncc(-c4cnc[nH]4)cc23)c1F [Example 83, N-(3-(5-(1H-imidazol-5-yl)-1H-pyrrolo[2,3-b]pyridine-3-carbonyl)-2,4-difluorophenyl)propane-1-sulfonamide] | +++ (PoC < 1) | ◯ (3 ≥ Ratio) | 100 to 1000 |  | +++ (Ratio > 100) | +++ (Ratio > 100) | ◯ (3 ≥ IC50(off-target)/IC50(MKK4)) | ++· |
| CCCS(=O)(=O)Nc1ccc(F)c(C(=O)c2c[nH]c3ncc(-c4cc[nH]c4)cc23)c1F [Example 100, N-(3-(5-(1H-pyrrol-3-yl)-1H-pyrrolo[2,3-b]pyridine-3-carbonyl)-2,4-difluorophenyl)propane-1-sulfonamide] | + (3 ≤ PoC < 30) | ◯ (3 ≥ Ratio) | > 10000 |  | ++ (100 ≥ ratio > 10) | ++ (100 ≥ ratio > 10) | ◯ (3 ≥ IC50(off-target)/IC50(MKK4)) | ◯ (3 ≥ IC50(off-target)/IC50(MKK4)) |

Second part, the compound after the results:

| MKK4 [% Ctrl @ 100 nM [1] | selectivity based on % Ctrl @100 nM vs. Braf [2] | IC50 [3] [nM] | Selectivity Braf, IC50(off-target)/IC50(MKK4) [4] | selectivity based on % Ctrl @100 nM vs. MKK7 [5] | selectivity based on % Ctrl @100 nM vs. JNK1 [6] | Selectivity JNK1, IC50(off-target)/IC50(MKK4) [7] | Selectivity IVIKK7, IC50(off-target)/IC50(MKK4) [8] | SMILES |
| --- | --- | --- | --- | --- | --- | --- | --- | --- |
| +++ (PoC < 1) | +++ (Ratio > 100) | < 100 | +++ (IC50(off-target)/IC50(MKK4) > 100) | +++ (Ratio > 100) | +++ (Ratio > 100) | +++ (IC50(off-target)/IC50(MKK4) > 100) | +++ (IC50(off-target)/IC50(MKK4) > 100) | O=C(c1ccc(F)c(NS(=O)(=O)CCC(F)(F)F)c1F)c1c[nH]c2ncc(-c3cnc(N4CCC4)nc3)cc12 [Example 180, N-(3(5-(2-(azetidin-1-yl)pyrimidin-5-yl)-1H-pyrrolo[2,3-b]pyridine-3-carbonyl)-2,6-difluorophenyl)-3,3,3-trifluoropropane-1-sulfonamide] |
| +++ (PoC < 1) | +++ (Ratio > 100) | < 100 | +++ (IC50(off-target)/IC50(MKK4) > 100) | +++ (Ratio > 100) | +++ (Ratio > 100) | +++ (IC50(off-target)/IC50(MKK4) > 100) | +++ (IC50(off-target)/IC50(MKK4) > 100) | O=C(c1ccc(F)c(NS(=O)(=O)CCC(F)(F)F)c1F)c1c[nH]c2ncc(-c3cnc(NC4CC4)nc3)cc12 [Example 182] |
| +++ (PoC < 1) | +++ (Ratio > 100) | < 100 | +++ (IC50(off-target)/IC50(MKK4) > 100) | +++ (Ratio > 100) | +++ (Ratio > 100) | +++ (IC50(off-target)/IC50(MKK4) > 100) | +++ (IC50(off-target)/IC50(MKK4) > 100) | O=C(c1ccc(F)c(NS(=O)(=O)CCC(F)(F)F)c1F)c1c[nH]c2ncc(-c3cnc(N4CCCC4)nc3)cc12 [Example 179, N-(2,6-difluoro-3-(5-(2-(pyrrolidin-1-yl)pyrimidin-5-yl)-1H-pyrrolo[2,3-b]pyridine-3-carbonyl)phenyl)-3,3,3-trifluoropropane-1-sulfonamide] |

From patent US11912701B2, “Protein kinase inhibitors for promoting liver regeneration or reducing or preventing hepatocyte death” (HEPAREGENIX GMBH, priority 2018, dated 2024)
